Earlier results, collected in publication PMC11088877, “AMP-activated protein kinase can be allosterically activated by ADP but AMP remains the key activating ligand” (Biochemical Journal, 2024).
pKd: −log10 of the molar value.

Molecular target: bacterially expressed AMPK heterotrimers (γ subunit CBS sites)
Settings: in the presence of Mg2+ and staurosporine; read-out: estimated Kd at the CBS3 site; cited from earlier work

In the case of Nc1ncnc2c1ncn2[C@@H]1O[C@H](COP(=O)(O)OP(=O)(O)OP(=O)(O)O)[C@@H](O)[C@H]1O [ATP], the pKd is given as 3.30 to 4.00.
